Starred links: 1 amine or outer side, 2 acyl side, 3 side chain; linkers in the order of their positions; H or OH if unused. Positions of bridges follow the written chain, without caps; N, C: chain ends. Non-standard residues stand in square brackets, D forms with d. Residues, ends and D or L forms follow the SMILES beside them. *: point of attachment. hPhe(3-Cl-4-CF3) = N[C@@H](CCc1ccc(C(F)(F)F)c(Cl)c1)C(=O)O; X19 = CC(C)(C)Oc1cc(CC[C@H](N[*:1])C(=O)[*:2])cc(Cl)c1Cl; X28 = CCCCOc1cc(CC[C@H](N[*:1])C(=O)[*:2])cc(Cl)c1Cl; X29 = N#Cc1cc(CC[C@H](N[*:1])C(=O)[*:2])cc(Cl)c1Cl; X15 = COc1cc(CC[C@H](N[*:1])C(=O)[*:2])cc(Cl)c1Cl; X49 = Cn1ccc2cc(CC[C@H](N[*:1])C(=O)[*:2])ccc21; NMePhe(4-Me) = CN[C@@H](Cc1ccc(C)cc1)C(=O)O; NMeAla(cPent) = CN[C@@H](CC1CCCC1)C(=O)O; NMeGly(cPent) = CN[C@H](C(=O)O)C1CCCC1; X21 = O=C(CN(c1cccc(Cl)c1)[*:1])[*:2]; X43 = O=C(CN(c1ccc(Cl)cc1)[*:1])[*:2]; NMeGly(cBu) = CN[C@H](C(=O)O)C1CCC1; NMeCha = CN[C@@H](CC1CCCCC1)C(=O)O; NMeChg = CN[C@H](C(=O)O)C1CCCCC1; NMeD = CN[C@@H](CC(=O)O)C(=O)O; NMeL = CN[C@@H](CC(C)C)C(=O)O; NMeNva = CCC[C@H](NC)C(=O)O; NMeV = CN[C@H](C(=O)O)C(C)C; NMeAbu = CC[C@H](NC)C(=O)O; NMeS = CN[C@@H](CO)C(=O)O; NPhGly = O=C(O)CNc1ccccc1; Morpholide = C1CN(*)CCO1; NMeA = CN[C@@H](C)C(=O)O; NMeAib = CNC(C)(C)C(=O)O; Piperidide = C1CCN(*)CC1; Pyrrolidide = C1CCN(*)C1; Ac5c = NC1(C(=O)O)CCCC1; Aze = O=C(O)[C@@H]1CCN1; Sar = CNCC(=O)O; Propyl = CCC*
Key:
[1] = molecular target: T1, Kras and SOS1 (biotin-tagged human Kras loaded with GDP, His-tagged human SOS1) (Homo sapiens, UniProt P01116, G12D); test: Protein-protein interaction inhibition between Kras and SOS1 (KrasGl2D-SOS PPI) using AlphaScreen; format: binding; conditions: AlphaScreen; biotin-tagged human Kras loaded with GDP, His-tagged human SOS1; read-out: KRAS G12D-SOS PPI IC50
T1 construct: made in house; host or cells: E. coli (stated for Kras only)
T1 sequence (P01116 1-188 isoform P01116-2 G12D): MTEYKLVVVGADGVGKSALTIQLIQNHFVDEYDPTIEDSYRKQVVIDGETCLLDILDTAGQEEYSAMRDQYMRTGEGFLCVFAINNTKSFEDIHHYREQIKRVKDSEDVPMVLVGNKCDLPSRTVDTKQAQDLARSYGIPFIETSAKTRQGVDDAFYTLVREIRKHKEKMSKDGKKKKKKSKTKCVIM
Outline: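 Energy transfer from nickel-chelate donor beads bound to His-SOS1 to streptavidin acceptor beads bound to biotin-Kras, expressed in E. coli and loaded with GDP after purification, was monitored. Donors were excited at 680 nm; singlet oxygen reaching acceptors gave emission read at 520-620 nm.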

[2] = tested on: Human pancreatic cancer cell line AsPC-1; test: Measurement of AsPC-1 cell growth inhibition (AsPC-1 CGI); format: cell-based; conditions: 96 h
Outline: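 AsPC-1 cells in 15% FBS RPMI-1640 were exposed to test compound for 96 hours at 37° C, with CellTiter-Glo as endpoint.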

Structure (SMILES)	IC50 [1]	IC50 [2]
CCC[C@H]1C(=O)N[C@@H]([C@@H](C)CC)C(=O)N(C)CC(=O)N(C)CC(=O)N(C)[C@@H](CC2CCCC2)C(=O)N(C)CC(=O)N[C@@H](CCc2ccc(C(F)(F)F)c(Cl)c2)C(=O)N2CCC[C@H]2C(=O)NC2(CCCC2)C(=O)N(C)[C@@H](C2CCCCC2)C(=O)N(C)[C@H](C(=O)N2CCOCC2)CC(=O)N1C [Compound 1998] ([NMeNva]I[Sar][Sar][NMeAla(cPent)][Sar][hPhe(3-Cl-4-CF3)]P[Ac5c][NMeChg][NMeD]-Morpholide; lactam N-11)	0.75 nM	100 to 500 nM
CC[C@H](C)[C@@H]1NC(=O)[C@H](CC)N(C)C(=O)C[C@@H](C(=O)N2CCOCC2)N(C)C(=O)[C@H](C2CCCCC2)N(C)C(=O)C2(CCCC2)NC(=O)[C@@H]2CCCN2C(=O)[C@H](CCc2ccc(C(F)(F)F)c(Cl)c2)NC(=O)CN(C)C(=O)[C@H](CC2CCCC2)N(C)C(=O)CN(C)C(=O)CN(C)C1=O [Compound 1999] ([NMeAbu]I[Sar][Sar][NMeAla(cPent)][Sar][hPhe(3-Cl-4-CF3)]P[Ac5c][NMeChg][NMeD]-Morpholide; lactam N-11)	0.82 nM	100 to 500 nM
CCC[C@H]1C(=O)N[C@@H]([C@@H](C)CC)C(=O)N(C)CC(=O)N(C)CC(=O)N(C)[C@@H](Cc2ccc(C)cc2)C(=O)N(C)CC(=O)N[C@@H](CCc2ccc(C(F)(F)F)c(Cl)c2)C(=O)N2CCC[C@H]2C(=O)NC2(CCCC2)C(=O)N(C)[C@@H](C2CCCCC2)C(=O)N(C)[C@H](C(=O)N2CCCC2)CC(=O)N1C [Compound 2004] ([NMeNva]I[Sar][Sar][NMePhe(4-Me)][Sar][hPhe(3-Cl-4-CF3)]P[Ac5c][NMeChg][NMeD]-Pyrrolidide; lactam N-11)	0.33 nM	20 to 50 nM
CCCOC[C@H]1C(=O)N(C)CC(=O)N[C@@H](CCc2ccc(C(F)(F)F)c(Cl)c2)C(=O)N2CCC[C@H]2C(=O)NC2(CCCC2)C(=O)N(C)[C@@H](C2CCCCC2)C(=O)N(C)[C@H](C(=O)N2CCCC2)CC(=O)N(C)[C@@H](CCC)C(=O)N[C@@H]([C@@H](C)CC)C(=O)N(C)CC(=O)N(C)CC(=O)N1C [Compound 2005] ([NMeNva]I[Sar][Sar][NMeS](Propyl)[Sar][hPhe(3-Cl-4-CF3)]P[Ac5c][NMeChg][NMeD]-Pyrrolidide; lactam N-11)	0.64 nM	50 to 100 nM
CCCOC[C@H]1C(=O)N(C)CC(=O)N[C@@H](CCc2ccc(C(F)(F)F)c(Cl)c2)C(=O)N2CCC[C@H]2C(=O)NC2(CCCC2)C(=O)N(C)[C@@H](C2CCCCC2)C(=O)N(C)[C@H](C(=O)N2CCCC2)CC(=O)N(C)[C@@H](CC(C)C)C(=O)N[C@@H]([C@@H](C)CC)C(=O)N(C)CC(=O)N(C)CC(=O)N1C [Compound 2006] ([NMeL]I[Sar][Sar][NMeS](Propyl)[Sar][hPhe(3-Cl-4-CF3)]P[Ac5c][NMeChg][NMeD]-Pyrrolidide; lactam N-11)	0.62 nM	50 to 100 nM
CC[C@H](C)[C@@H]1NC(=O)[C@H](C)N(C)C(=O)C[C@@H](C(=O)N2CCCCC2)N(C)C(=O)[C@H](C(C)C)N(C)C(=O)C2(CCCC2)NC(=O)[C@@H]2CCCN2C(=O)[C@H](CCc2cc(Cl)c(Cl)c(OC)c2)NC(=O)CN(C)C(=O)[C@H](CC2CCCCC2)N(C)C(=O)CN(C)C(=O)CN(C)C1=O [Compound 2061] ([NMeA]I[Sar][Sar][NMeCha][Sar][X15]P[Ac5c][NMeV][NMeD]-Piperidide; lactam N-11)	21 nM	> 500 nM
CC[C@H](C)[C@@H]1NC(=O)[C@H](CC(C)C)N(C)C(=O)C[C@@H](C(=O)N2CCCCC2)N(C)C(=O)[C@H](C2CCCC2)N(C)C(=O)C2(CCCC2)NC(=O)[C@@H]2CCCN2C(=O)[C@H](CCc2ccc3c(ccn3C)c2)NC(=O)CN(C)C(=O)[C@H](CC2CCCCC2)N(C)C(=O)[C@@H]2CCN2C(=O)[C@H](C)N(C)C1=O [Compound 2064] ([NMeL]I[NMeA][Aze][NMeCha][Sar][X49]P[Ac5c][NMeGly(cPent)][NMeD]-Piperidide; lactam N-11)	12 nM	100 to 500 nM
CCCCOc1cc(CC[C@@H]2NC(=O)CN(C)C(=O)[C@H](CC3CCCCC3)N(C)C(=O)CN(C)C(=O)CN(C)C(=O)[C@H]([C@@H](C)CC)NC(=O)[C@H](C)N(C)C(=O)C[C@@H](C(=O)N3CCCCC3)N(C)C(=O)[C@H](C3CCCCC3)N(C)C(=O)C3(CCCC3)NC(=O)[C@@H]3CCCN3C2=O)cc(Cl)c1Cl [Compound 2066] ([NMeA]I[Sar][Sar][NMeCha][Sar][X28]P[Ac5c][NMeChg][NMeD]-Piperidide; lactam N-11)	63 nM	> 500 nM
CC[C@H](C)[C@@H]1NC(=O)[C@H](C)N(C)C(=O)C[C@@H](C(=O)N2CCCCC2)N(C)C(=O)[C@H](C(C)C)N(C)C(=O)C2(CCCC2)NC(=O)[C@@H]2CCCN2C(=O)[C@H](CCc2cc(Cl)c(Cl)c(C#N)c2)NC(=O)CN(C)C(=O)[C@H](CC2CCCCC2)N(C)C(=O)CN(C)C(=O)CN(C)C1=O [Compound 2071] ([NMeA]I[Sar][Sar][NMeCha][Sar][X29]P[Ac5c][NMeV][NMeD]-Piperidide; lactam N-11)	9.2 nM	> 500 nM
CC[C@H](C)[C@@H]1NC(=O)[C@H](C)N(C)C(=O)C[C@@H](C(=O)N2CCCCC2)N(C)C(=O)[C@H](C(C)C)N(C)C(=O)C2(CCCC2)NC(=O)[C@@H]2CCCN2C(=O)[C@H](CCc2cc(Cl)c(Cl)c(OC(C)(C)C)c2)NC(=O)CN(C)C(=O)[C@H](CC2CCCCC2)N(C)C(=O)CN(C)C(=O)CN(C)C1=O [Compound 2073] ([NMeA]I[Sar][Sar][NMeCha][Sar][X19]P[Ac5c][NMeV][NMeD]-Piperidide; lactam N-11)	12 nM	> 500 nM
CC[C@H](C)[C@@H]1NC(=O)[C@H](C)N(C)C(=O)C[C@@H](C(=O)N2CCCCC2)N(C)C(=O)[C@H](C2CCCCC2)N(C)C(=O)C2(CCCC2)NC(=O)[C@@H]2CCCN2C(=O)[C@H](CCc2cc(Cl)c(Cl)c(C#N)c2)NC(=O)CN(C)C(=O)[C@H](CC2CCCCC2)N(C)C(=O)CN(C)C(=O)CN(C)C1=O [Compound 2075] ([NMeA]I[Sar][Sar][NMeCha][Sar][X29]P[Ac5c][NMeChg][NMeD]-Piperidide; lactam N-11)	1.1 nM	> 500 nM
CC[C@H](C)[C@@H]1NC(=O)[C@H](C)N(C)C(=O)C[C@@H](C(=O)N2CCCCC2)N(C)C(=O)[C@H](C2CCCCC2)N(C)C(=O)C2(CCCC2)NC(=O)[C@@H]2CCCN2C(=O)[C@H](CCc2cc(Cl)c(Cl)c(OC)c2)NC(=O)CN(C)C(=O)[C@H](CC2CCCCC2)N(C)C(=O)CN(C)C(=O)CN(C)C1=O [Compound 2081] ([NMeA]I[Sar][Sar][NMeCha][Sar][X15]P[Ac5c][NMeChg][NMeD]-Piperidide; lactam N-11)	2 nM	> 500 nM
CC[C@H](C)[C@@H]1NC(=O)[C@H](C)N(C)C(=O)C[C@@H](C(=O)N2CCCCC2)N(C)C(=O)[C@H](C2CCCCC2)N(C)C(=O)C2(CCCC2)NC(=O)[C@@H]2CCCN2C(=O)[C@H](CCc2cc(Cl)c(Cl)c(OC(C)(C)C)c2)NC(=O)CN(C)C(=O)[C@H](CC2CCCCC2)N(C)C(=O)CN(C)C(=O)CN(C)C1=O [Compound 2082] ([NMeA]I[Sar][Sar][NMeCha][Sar][X19]P[Ac5c][NMeChg][NMeD]-Piperidide; lactam N-11)	41 nM	> 500 nM
CCCCOc1cc(CC[C@@H]2NC(=O)CN(C)C(=O)[C@H](CC3CCCCC3)N(C)C(=O)CN(C)C(=O)CN(C)C(=O)[C@H]([C@@H](C)CC)NC(=O)[C@H](C)N(C)C(=O)C[C@@H](C(=O)N3CCCCC3)N(C)C(=O)[C@H](C(C)C)N(C)C(=O)C3(CCCC3)NC(=O)[C@@H]3CCCN3C2=O)cc(Cl)c1Cl [Compound 2083] ([NMeA]I[Sar][Sar][NMeCha][Sar][X28]P[Ac5c][NMeV][NMeD]-Piperidide; lactam N-11)	52 nM	> 500 nM
CC[C@H](C)[C@@H]1NC(=O)[C@H](C)N(C)C(=O)C[C@@H](C(=O)N2CCCCC2)N(C)C(=O)[C@H](C2CCC2)N(C)C(=O)C(C)(C)N(C)C(=O)CN(c2ccccc2)C(=O)[C@H](CCc2ccc(C(F)(F)F)c(Cl)c2)NC(=O)CN(C)C(=O)[C@H](C2CCC2)N(C)C(=O)[C@@H]2CCN2C(=O)[C@H](C)N(C)C1=O [Compound 2144] ([NMeA]I[NMeA][Aze][NMeGly(cBu)][Sar][hPhe(3-Cl-4-CF3)][NPhGly][NMeAib][NMeGly(cBu)][NMeD]-Piperidide; lactam N-11)	6.9 nM	> 500 nM
CC[C@H](C)[C@@H]1NC(=O)[C@H](C)N(C)C(=O)C[C@@H](C(=O)N2CCCCC2)N(C)C(=O)[C@H](C2CCC2)N(C)C(=O)C(C)(C)N(C)C(=O)CN(c2cccc(Cl)c2)C(=O)[C@H](CCc2ccc(C(F)(F)F)c(Cl)c2)NC(=O)CN(C)C(=O)[C@H](C2CCC2)N(C)C(=O)[C@@H]2CCN2C(=O)[C@H](C)N(C)C1=O [Compound 2146] ([NMeA]I[NMeA][Aze][NMeGly(cBu)][Sar][hPhe(3-Cl-4-CF3)][X21][NMeAib][NMeGly(cBu)][NMeD]-Piperidide; lactam N-11)	5.1 nM	> 500 nM
CC[C@H](C)[C@@H]1NC(=O)[C@H](C)N(C)C(=O)C[C@@H](C(=O)N2CCCCC2)N(C)C(=O)[C@H](C2CCC2)N(C)C(=O)C(C)(C)N(C)C(=O)CN(c2ccc(Cl)cc2)C(=O)[C@H](CCc2ccc(C(F)(F)F)c(Cl)c2)NC(=O)CN(C)C(=O)[C@H](C2CCC2)N(C)C(=O)[C@@H]2CCN2C(=O)[C@H](C)N(C)C1=O [Compound 2147] ([NMeA]I[NMeA][Aze][NMeGly(cBu)][Sar][hPhe(3-Cl-4-CF3)][X43][NMeAib][NMeGly(cBu)][NMeD]-Piperidide; lactam N-11)	8 nM	> 500 nM

— patent US12371454B2, “Cyclic peptide compound having Kras inhibitory action” (priority 2019, dated 2025)
